Measured values as given in US20230104936A1, “TRPML MODULATORS” (Casma Therapeutics, Inc., priority 2019, published 2023).

Test system: TFEB
Assay: TFEB nuclear translocation assay, HeLa wt cells
Assay type: cell-based
Conditions: Homo sapiens, HeLa, 2 h, 2 hrs compound treatment, Table 1 does not say HeLa wt or TRPML1 KO
Outline: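 Read-out is the ratio of TFEB immunofluorescence in the nucleus to that in a ring just outside it, measured by automated imaging. HeLa wt cells received compounds for 2 hrs at 37° C before fixation and staining; AC50 values come from this ratio.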

Q: How did the AC50 turn out when `CC1(C)CC2(CCN(c3ccccc3NS(=O)(=O)c3cnn(C4CCC4)c3)CC2)CO1` [Compound A-666, 1-cyclobutyl-N-(2-{3,3-dimethyl-2-oxa-8-azaspiro[4.5]decan-8-yl}phenyl)-1H-pyrazole-4-sulfonamide] was run?
A: 2.01 to 8 µM

Q: `CC1(C)CC2(CCN(c3ccccc3NS(=O)(=O)c3ccc(OC(F)F)c(F)c3)CC2)CO1` [Compound A-667, 4-(difluoromethoxy)-N-(2-{3,3-dimethyl-2-oxa-8-azaspiro[4.5]decan-8-yl}phenyl)-3-fluorobenzene-1-sulfonamide] was tested. Which AC50 did it give?
A: 2.01 to 8 µM

Q: Which AC50 does the source give for `CC1(C)CC2(CCN(c3ccccc3NS(=O)(=O)Cc3cccc(F)c3)CC2)CO1` [Compound A-668, N-(2-{3,3-dimethyl-2-oxa-8-azaspiro[4.5]decan-8-yl}phenyl)-1-(3-fluorophenyl)methanesulfonamide] here?
A: 2.01 to 8 µM

Q: With `CC1(C)CC2(CCN(c3ccccc3NS(=O)(=O)c3cccc(C4CC4)c3)CC2)CO1` [Compound A-669, 3-cyclopropyl-N-(2-{3,3-dimethyl-2-oxa-8-azaspiro[4.5]decan-8-yl}phenyl)benzene-1-sulfonamide] as the molecule, how does the AC50 read?
A: ≤ 2 µM

Q: Which AC50 does the source give for `CC1(C)CC2(CCN(c3ccccc3NS(=O)(=O)c3cccc(C4OCCO4)c3)CC2)CO1` [Compound A-670, N-(2-{3,3-dimethyl-2-oxa-8-azaspiro[4.5]decan-8-yl}phenyl)-3-(1,3-dioxolan-2-yl)benzene-1-sulfonamide] here?
A: 2.01 to 8 µM

Q: How did the AC50 turn out when `CC1(C)CC2(CCN(c3ccccc3NS(=O)(=O)c3ccc(C(F)F)cc3)CC2)CO1` [Compound A-671, 4-(difluoromethyl)-N-(2-{3,3-dimethyl-2-oxa-8-azaspiro[4.5]decan-8-yl}phenyl)benzene-1-sulfonamide] was run?
A: ≤ 2 µM

Q: How did the AC50 turn out when `CC1(C)CC2(CCN(c3ccccc3NS(=O)(=O)c3ccc(C4CC4)cc3)CC2)CO1` [Compound A-672, 4-cyclopropyl-N-(2-{3,3-dimethyl-2-oxa-8-azaspiro[4.5]decan-8-yl}phenyl)benzene-1-sulfonamide] was run?
A: ≤ 2 µM

Q: For `CC1(C)CC2(CCN(c3ccccc3NS(=O)(=O)c3ccc(OC(F)(F)F)cc3)CC2)CO1` [Compound A-673, N-(2-{3,3-dimethyl-2-oxa-8-azaspiro[4.5]decan-8-yl}phenyl)-4-(trifluoromethoxy)benzene-1-sulfonamide], which AC50 is on record?
A: 2.01 to 8 µM

Q: `CC1(C)CC2(CCN(c3ccccc3NS(=O)(=O)c3ccc(C4CC4)s3)CC2)CO1` [Compound A-674, 5-cyclopropyl-N-(2-{3,3-dimethyl-2-oxa-8-azaspiro[4.5]decan-8-yl}phenyl)thiophene-2-sulfonamide] was tested. Which AC50 did it give?
A: ≤ 2 µM

Q: Which AC50 does the source give for `CC1(C)CC2(CCN(c3ccccc3NS(=O)(=O)C3=Cc4ccccc4OC3)CC2)CO1` [Compound A-675, N-(2-{3,3-dimethyl-2-oxa-8-azaspiro[4.5]decan-8-yl}phenyl)-2H-chromene-3-sulfonamide] here?
A: ≤ 2 µM

Q: With `CC1(C)CC2(CCN(c3ccccc3NS(=O)(=O)C3=Cc4ccccc4CC3)CC2)CO1` [Compound A-676, N-(2-{3,3-dimethyl-2-oxa-8-azaspiro[4.5]decan-8-yl}phenyl)-3,4-dihydronaphthalene-2-sulfonamide] as the molecule, how does the AC50 read?
A: 2.01 to 8 µM

Q: With `Cc1ccc(CS(=O)(=O)Nc2ccccc2N2CCC3(CC2)COC(C)(C)C3)cc1F` [Compound A-677, N-(2-{3,3-dimethyl-2-oxa-8-azaspiro[4.5]decan-8-yl}phenyl)-1-(3-fluoro-4-methylphenyl)methanesulfonamide] as the molecule, how does the AC50 read?
A: ≤ 2 µM

Q: For `CC1(C)CC2(CCN(c3ccccc3NS(=O)(=O)Cc3cccc(Cl)c3)CC2)CO1` [Compound A-678, 1-(3-chlorophenyl)-N-(2-{3,3-dimethyl-2-oxa-8-azaspiro[4.5]decan-8-yl}phenyl)methanesulfonamide], which AC50 is on record?
A: ≤ 2 µM

Q: For `Cc1ccc(F)c(CS(=O)(=O)Nc2ccccc2N2CCC3(CC2)COC(C)(C)C3)c1` [Compound A-679, N-(2-{3,3-dimethyl-2-oxa-8-azaspiro[4.5]decan-8-yl}phenyl)-1-(2-fluoro-5-methylphenyl)methanesulfonamide], which AC50 is on record?
A: ≤ 2 µM
